{
  "source": "patent US9018188B2",
  "about": "“MicroRNA inhibitors” (Ottawa Hospital Research Institute, priority 2011, dated 2015)",
  "key": {"miR-133a and miR-133b": {"tested_on": "miR-133a and miR-133b", "assay": "RT-qPCR of miR-133 expression after intramuscular ASO injection", "type": "in vivo, mouse", "text": "(§1) To investigate miR-133 function in brown adipose determination of satellite cells in vivo, Applicant synthesized miR-133 antagomiR (miR-133 antisense oligonucleotide (ASO)) with an antisense sequence to both miR-133a and miR-133b, as well as a control “antagomiR” (control ASO) with the same chemical modifications and not antisense to any mouse gene or EST sequence (see Experimental Procedures). Applicant performed lineage tracing to distinguish effects of miR-133 ASO on satellite cells versus other cell types. Six week old Pax7-CreER; R26R-tdTomato mice were treated with tamoxifin as before (5 consecutive daily injections), then aged to 10 weeks of age prior to initiating the experiment. Control ASO versus miR-133 ASO were injected into tibialis anterior (TA) muscles 3 days following saline injection (quiescent state) or cardiotoxin injection (to induce activation). After one month, RT-qPCR was performed using RNA isolated from several tissues to evaluate the efficacy and scope of miR-133 ASO administration.\n(§2) To induce brown adipocytes in vivo, 10 mg/mL Cardiotoxin solution (50 μl) was intramuscularly injected into TA muscles of 10-week old Pax7-CreER/R26R-tdTomato mice (FIG. 4) or C57BL/6 mice (FIG. 5 and FIG. 6). Alternatively, frozen injury was performed by applying liquid nitrogen cooled tweezers tips directly onto the anterior sides of TA muscles. After 3 days, 20 μg of miR-133 antagomiR or control antagomiR in saline (50 μl) was intramuscularly injected into the same injured TA muscles (on right hindlimbs). To test efficacy of miR-133 ASO in intact muscles, saline, instead of Cardiotoxin, was injected to TA muscles before miR-133 ASO administration (FIGS. 4A, 4B). miR-133 antagomiR and scramble antagomiR were designed as previously described (Krutzfeldt et al., 2005).\nTotal RNA was extracted from cells by TRIzol or Arcturus® PicoPure® RNA Isolation Kit (Applied Biosystems) following manufactures' recommendations. […]"}, "let-7a microRNA": {"tested_on": "let-7a microRNA", "assay": "RT-qPCR of let-7a expression after intramuscular ASO injection (specificity)", "type": "in vivo, mouse", "settings": "intramuscular administration", "text": "as §1\nTo induce brown adipocytes in vivo, 10 mg/mL Cardiotoxin solution (50 μl) was intramuscularly injected into TA muscles of 10-week old Pax7-CreER/R26R-tdTomato mice (FIG. 4) or C57BL/6 mice (FIG. 5 and FIG. 6). Alternatively, frozen injury was performed by applying liquid nitrogen cooled tweezers tips directly onto the anterior sides of TA muscles. […]"}, "hindlimbs": {"tested_on": "hindlimbs", "assay": "Thermographic imaging of hindlimb surface temperature", "type": "in vivo, mouse", "procedure": "Mouse thermographic imaging was performed with a FUR T640 infrared camera with highest sensitivity set to ˜35° C. Control- or miR-133 ASO treated C57BL/6 male mice fed with either a regular diet or a high fat diet were shaved at both of the hindlimbs one day before the imaging. Subject mice were quickly anesthetized under ˜1% isoflurane and thermographic images were taken immediately after the mice were anesthetized (within 2 minutes). Data analysis was performed using FUR QuickReport software with measuring crosses set on the TA muscle areas on lower hindlimbs and the neck areas."}, "[1]": {"assay": "Body weight and fat depot weights after ASO treatment during TA muscle regeneration", "type": "in vivo, mouse", "procedure": "Treated and control C57BL/6 male mice were raised on either RD or HFD in individual cages at 22° C. (n=5 per treatment per diet group). In both diet groups, miR-133 ASO treated mice were obviously leaner than the control mice at 4-month after treatment (FIG. 6A).\nas §2"}, "[2]": {"assay": "Indirect calorimetry, physical activity and food intake", "type": "in vivo, mouse", "text": "To assess whether miR-133 ASO treatment leads to increased whole-body energy expenditure, Applicant carried out indirect calorimetry studies at 2-3 months after ASO treatment on control- and miR-133 ASO treated mice (C57BL/6, male, individually caged, n=5 per treatment group per diet group; FIGS. 6C & 7B). […] Intriguingly, this amount of energy expenditure is coincident with the increase of mitochondrial respirometry-measured energy expenditure in miR-133 ASO treated TA muscles after adjustment with TA muscle mass (FIG. 7A; 0.3 cal·hour^−1·le^−1×75 mg=0.0225 kcal·hour^−1).\n(§3) This discrepancy may be related to the abnormally low respiratory exchange ratio (˜0.76) in the control mice fed with HFD (FIG. 7D), which indicates an increased proportion of lipid oxidation in the control mice. […] In addition, miR-133 ASO treatment also led to much improved glucose tolerance in both diet groups (FIGS. 6E & 7F).\nWhole-body O2 consumption and CO2 production was measured using an open circuit four-chamber indirect calorimetry system with automatic temperature and light controls (Columbus Instruments). Physical activities during indirect calorimetry was measured using infrared laser beam sets. Mice had access ad libitum to food and water in respiration chambers. Data were recorded for a 24 hour period with light between 06:00-18:00."}, "[3]": {"tested_on": "epididymal white fat depots and liver", "assay": "H/E staining of fat depots and liver", "type": "in vivo, mouse", "settings": "mice fed the HFD", "text": "as §3"}, "IL-1β and TNF-α": {"tested_on": "IL-1β and TNF-α", "settings": "mouse, in vivo"}},
  "data": [
    {"substance": "*mA*mUmAmGmCmUmGmGmUmUmGmAmAmGmGmGmGmAmC*mC*mA*mA*mAChl [miR-133 ASO]", "values": [
      {"measurement": "miR-133a/b expression in the contralateral TA muscles", "setting": "miR-133a and miR-133b; ASO injected into resting muscles", "value": "repressed"},
      {"measurement": "miR-133 expression in the myocardium", "setting": "miR-133a and miR-133b; intramuscular administration", "value": "unaffected"},
      {"measurement": "miR-133a and miR-133b expression within the injected TA muscles", "setting": "miR-133a and miR-133b; intramuscular, one month after injection, resting or regenerating muscle", "value": "striking reduction"},
      {"measurement": "let-7a microRNA expression", "setting": "let-7a microRNA", "value": "no effect"},
      {"measurement": "surface temperature of treated hindlimbs higher than control hindlimbs", "setting": "hindlimbs; mice fed with HFD", "value": 0.9, "unit": "°C"},
      {"measurement": "surface temperature of treated hindlimbs higher than control hindlimbs", "setting": "hindlimbs; mice fed with RD", "value": 0.7, "unit": "°C"},
      {"measurement": "gain in body weight", "setting": "[1]; 4-month period after ASO administration, RD or HFD, C57BL/6 male", "value": "reduced gain in body weight"},
      {"measurement": "igWAT and epiWAT weights", "setting": "[1]; mouse, in vivo", "value": "significant reduction"},
      {"measurement": "mass of iBAT depots and treated TA muscles", "setting": "[1]; mouse, in vivo", "value": "unaffected"},
      {"measurement": "energy expenditure or physical activity compared to control mice", "setting": "[2]; HFD, dark cycle", "value": "No significant increase"},
      {"measurement": "physical activities", "setting": "[2]; HFD, light cycle", "value": "without difference"},
      {"measurement": "total energy expenditure", "setting": "[2]; HFD, light cycle", "value": "significantly increased"},
      {"measurement": "energy expenditure", "setting": "[2]; RD, dark cycle", "value": "conspicuously high"},
      {"measurement": "physical activities", "setting": "[2]; RD, dark cycle", "value": "increased"},
      {"measurement": "physical activities", "setting": "[2]; RD, light cycle", "value": "without change"},
      {"measurement": "total energy expenditure", "setting": "[2]; RD, light cycle, 2-3 months after treatment", "value": "significant increase"},
      {"measurement": "24-hour food intake versus control mice", "setting": "[2]; both diet groups", "value": "comparable"},
      {"measurement": "infiltrating inflammatory cells in the epididymal white fat depots", "setting": "[3]", "value": "reduced numbers"},
      {"measurement": "steatosis of the liver", "setting": "[3]", "value": "reduced steatosis"},
      {"measurement": "expression of IL-1β and TNF-α between control- and treated muscles", "setting": "IL-1β and TNF-α", "value": "no difference"}
    ]}
  ]
}
